Conditions: [M+H]+; instrument: TW; calibrated with polyalanine and drug standards

SMILES | collision cross section (N2) [Å²]
CCC(=O)OCC(=O)[C@@]1(OC(=O)CC)[C@@H](C)C[C@H]2[C@@H]3CCC4=CC(=O)C=C[C@]4(C)[C@@]3(F)[C@@H](O)C[C@@]21C [BETAMETHASONE 17,21-DIPROPIONATE] | 218.1
COc1cc2c(cc1O)C[C@H]1c3c(cc(O)c(OC)c3-2)CCN1C [BOLDINE] | 179.2
Oc1c(Br)cc(Br)c2cccnc12 [BROXYQUINOLINE] | 137.7
COC(=O)C[C@H]1C2(C)CC34OC5(C)O[C@@]6([C@H](OC(C)=O)C(OC(C)=O)[C@]7(C)C(/C(=C(/O)C(C)C)C(=O)O[C@H]7c7ccoc7)[C@@]6(O5)[C@H](OC(C)=O)[C@@]3(O)C2OC(=O)C(C)C)[C@]14C (stereo partly specified) [BUSSEIN] | 258.7
CC[C@@]1(O)C(=O)OCc2c1cc1n(c2=O)Cc2cc3ccccc3nc2-1 [CAMPTOTHECIN] | 181.9
COc1cc(CNC(=O)CCCC/C=C/C(C)C)ccc1O [CAPSAICIN] | 181.6
C/C=C(/C)C(=O)O[C@H]1CC[C@@]2(C)[C@@H]3CC[C@H]4[C@]5(O)C[C@H](O)[C@@]6(O)[C@@H](CN7C[C@@H](C)CC[C@H]7[C@@]6(C)O)[C@]5(O)C[C@@]42O[C@]13O [CEVADINE] | 237.2
O=C1C(Cl)=C(Cl)C(=O)C(Cl)=C1Cl [CHLORANIL] | 148.9
NC(=NCCCCCCN=C(N)/N=C(\N)Nc1ccc(Cl)cc1)/N=C(\N)Nc1ccc(Cl)cc1 [CHLORHEXIDINE] | 221.3
CCCNC(=O)NS(=O)(=O)c1ccc(Cl)cc1 [CHLORPROPAMIDE] | 158.5
O=C1CCc2cc(OCCCCc3nnnn3C3CCCCC3)ccc2N1 [CILOSTAZOL] | 199.7
C=C[C@H]1CN2CC[C@H]1C[C@H]2[C@H](O)c1ccnc2ccccc12 [CINCHONIDINE] | 168.2
CCC(=O)O[C@]1(C(=O)CCl)[C@@H](C)C[C@H]2[C@@H]3CCC4=CC(=O)C=C[C@]4(C)[C@@]3(F)[C@@H](O)C[C@@]21C [CLOBETASOL PROPIONATE] | 205.1
C[C@H]1[C@H]2CC[C@H]3[C@@H]4CC=C5C[C@@H](N(C)C)CC[C@]5(C)[C@H]4CC[C@]23CN1C [CONESSINE] | 195.4
C[C@@H]1O[C@@H](O[C@H]2CC[C@]3(C=O)[C@H]4CC[C@]5(C)[C@@H](C6=CC(=O)OC6)CC[C@]5(O)[C@@H]4CC[C@]3(O)C2)[C@H](O)[C@H](O)[C@H]1O [CONVALLATOXIN] | 238.1
CN1C(=O)CC[C@H]1c1cccnc1 [COTININE] | 141.1
CC(C)CCCC1(C)C=Cc2c(O)c3c(c(CCC(C)C)c2O1)OC12C(CC4CC1C(C)(C)OC2(CCC(C)C(=O)O)C4O)C3=O (stereo unspecified) [DECAHYDROGAMBOGIC ACID] | 251
CCCCCCCCCCOc1cc2c(=O)c(C(=O)OCC)c[nH]c2cc1OCC [DECOQUINATE] | 216.2
C=C(C)C1Cc2c(ccc3c(=O)c4c(oc23)COc2cc(OC)c(OC)cc2-4)O1 (stereo unspecified) [DEHYDROROTENONE] | 192.3
CC(=O)O[C@@H]1C[C@H]2C(C)(C)C(=O)C=C[C@]2(C)[C@H]2CC[C@]3(C)C(=CC(=O)O[C@H]3c3ccoc3)[C@@]21C [DEOXYGEDUNIN] | 206.3
COC(=O)[C@@H]1OC(=O)C2OC23[C@@]1(C)CCC1[C@]2(C)C(C[C@@H](O)[C@]13C)C(C)(C)[C@H](OC(C)=O)C[C@@H]2OC(C)=O (stereo partly specified) [DESACETYL (7)KHIVORINIC ACID, METHYL ESTER] | 216.9
CC(=O)Oc1ccccc1C(=O)Oc1ccccc1C(=O)O [DIPLOSALSALATE] | 159.4

The remaining lines, values ahead:

collision cross section (N2) [Å²] | SMILES
186.7 | NS(=O)(=O)c1cc2c(cc1Cl)NC(CSCc1ccccc1)=NS2(=O)=O [BENZTHIAZIDE]
193.3 | CC(=O)Oc1ccc(C(c2ccc(OC(C)=O)cc2)c2ccccn2)cc1 [BISACODYL]
173.6 | CCN(CC)CCNC(=O)c1cc(Br)c(N)cc1OC [BROMOPRIDE]
194.9 | O=C(CCCN1CCC(O)(c2ccc(Br)cc2)CC1)c1ccc(F)cc1 [BROMPERIDOL]
161 | CCCCOc1ccc(CC(=O)NO)cc1 [BUFEXAMAC]
159.4 | CCCCOC(=O)c1ccc(N)cc1 [BUTAMBEN]
176.9 | COc1cc(C(=O)NCCCCCC(=O)O)cc(OC)c1OC [CAPOBENIC ACID]
206.3 | COC(=O)C[C@H]1C(C)(C)C(=O)[C@@H]2CC3=C(CC[C@]4(C)C3=CC(=O)O[C@H]4c3ccoc3)[C@@]1(C)C2=O [CARAPIN-8(9)-ENE]
134.4 | CCOC(=O)n1ccn(C)c1=S [CARBIMAZOLE]
183.1 | CC1=C(C(=O)O)N2C(=O)[C@@H](NC(=O)[C@H](N)c3ccc(O)cc3)[C@H]2SC1 [CEFADROXIL]
218.2 | CC(C)(O/N=C(\C(=O)N[C@@H]1C(=O)N2C(C(=O)[O-])=C(C[n+]3ccccc3)CS[C@H]12)c1csc(N)n1)C(=O)O [CEFTAZIDIME]
191.4 | Nc1nc(/C(=C/CC(=O)O)C(=O)N[C@@H]2C(=O)N3C(C(=O)O)=CCS[C@H]23)cs1 [CEFTIBUTEN]
197 | CC(=O)O[C@]1(C(C)=O)CC[C@H]2[C@@H]3C=C(Cl)C4=CC(=O)CC[C@]4(C)[C@H]3CC[C@@]21C [CHLORMADINONE ACETATE]
211.4 | CC(C)CCC[C@@H](C)[C@H]1CC[C@H]2[C@@H]3CC=C4CC(=O)CC[C@]4(C)[C@H]3CC[C@]12C [CHOLEST-5-EN-3-ONE]
134 | O=C(O)c1cc(=O)c2ccccc2o1 [CHROMOCARB]
160.5 | COc1cc(OC)c2c(=O)cc(-c3ccccc3)oc2c1 [CHRYSIN DIMETHYL ETHER]
264.2 | CC[C@H]1OC(=O)[C@H](C)[C@@H](O[C@H]2C[C@@](C)(OC)[C@@H](O)[C@H](C)O2)[C@H](C)[C@@H](O[C@@H]2O[C@H](C)C[C@H](N(C)C)[C@H]2O)[C@](C)(OC)C[C@@H](C)C(=O)[C@H](C)[C@@H](O)[C@]1(C)O [CLARITHROMYCIN]

collision cross section (N2) [Å²] | SMILES
216.8 | CC(C)N=c1cc2n(-c3ccc(Cl)cc3)c3ccccc3nc-2cc1Nc1ccc(Cl)cc1 [CLOFAZIMINE]
129.5 | Oc1ccc(Cl)c2cccnc12 [CLOXYQUIN]
129.1 | CC(=O)Oc1c(C)cccc1C(=O)O [CRESOPIRINE]
341.2 | Cc1c2oc3c(C)ccc(C(=O)N[C@@H]4C(=O)N[C@H](C(C)C)C(=O)N5CCC[C@H]5C(=O)N(C)CC(=O)N(C)[C@@H](C(C)C)C(=O)O[C@@H]4C)c3nc-2c(C(=O)N[C@@H]2C(=O)N[C@H](C(C)C)C(=O)N3CCC[C@H]3C(=O)N(C)CC(=O)N(C)[C@@H](C(C)C)C(=O)O[C@@H]2C)c(N)c1=O [DACTINOMYCIN]
148.3 | O=C1c2cccc(O)c2C(=O)c2c(O)cccc21 [DANTHRON]
151.7 | Nc1ccc(S(=O)(=O)c2ccc(N)cc2)cc1 [DAPSONE]
194.2 | COc1cc2c(cc1OC)[C@@H]1C(=O)c3ccc4c(c3O[C@@H]1CO2)C=CC(C)(C)O4 [DEGUELIN(-)]
186.6 | COc1ccc(-c2cc(=O)c3c(O)c(OC)c(OC)c(OC)c3o2)cc1OC [DEMETHYLNOBILETIN]
224.9 | CC(=O)O[C@H]1C[C@@H](OC(C)=O)C(C)(C)C2C[C@@H](OC(C)=O)[C@@]3(C)C4=CC(=O)O[C@@H](c5ccoc5)[C@]4(C)CCC3[C@]21C (stereo partly specified) [DEOXYKHIVORIN]
169.8 | COc1cc(OC)c2c(=O)c(-c3ccc4c(c3)OCO4)coc2c1 [DERRUSTONE]
187.9 | C[C@@H]1C[C@H]2[C@@H]3CCC4=CC(=O)C=C[C@]4(C)[C@@]3(F)[C@@H](O)C[C@]2(C)[C@@]1(O)C(=O)CO [DEXAMETHASONE]
143.7 | CC1=NS(=O)(=O)c2cc(Cl)ccc2N1 [DIAZOXIDE]
147 | CCCCCC1C(=O)CCC1CC(=O)O (stereo unspecified) [DIHYDROJASMONIC ACID]
143.7 | Cc1c(C(N)=O)cc([N+](=O)[O-])cc1[N+](=O)[O-] [DINITOLMIDE]
164.8 | COc1ccc(-c2cc(=O)c3c(O)cc(O)cc3o2)cc1O [DIOSMETIN]
242.5 | COc1ccc(-c2cc(=O)c3c(O)cc(O[C@@H]4O[C@H](CO[C@@H]5O[C@@H](C)[C@H](O)[C@@H](O)[C@H]5O)[C@@H](O)[C@H](O)[C@H]4O)cc3o2)cc1O [DIOSMIN]
168.5 | COc1ccc(-c2coc3c(O)c(O)c(OC)cc3c2=O)cc1 [DIPTERYXIN]

Same assay, conditions: [M+Na]+; instrument: TW; calibrated with polyalanine and drug standards

SMILES | collision cross section (N2) [Å²]
OC[C@H]1O[C@@H](O[C@H]2[C@H](O)[C@@H](O)[C@@H](O)O[C@@H]2CO)[C@H](O)[C@@H](O)[C@@H]1O [CELLOBIOSE (D[+])] | 175.7
C[C@H](CCC(=O)O)[C@H]1CC[C@H]2[C@@H]3C(=O)C[C@@H]4CC(=O)CC[C@]4(C)[C@H]3CC(=O)[C@]12C [DEHYDROCHOLIC ACID] | 192.1
CCCCOC(=O)c1ccccc1C(=O)OCCCC [DIBUTYL PHTHALATE] | 180.7

Results, then the molecule that gave them:

collision cross section (N2) [Å²] | SMILES
206.6 | CC(=O)Oc1cc(OC(C)=O)c2c(c1)O[C@H](c1ccc(OC(C)=O)c(OC(C)=O)c1)[C@@H](OC(C)=O)C2 [CATECHIN PENTAACETATE]
153.2 | C/C=C(/C(=C/C)c1ccc(O)cc1)c1ccc(O)cc1 [DIENESTROL]

From the C3SDB collision cross section collection
